Read-outs that look alike come from different tables or passages of the source.
Key:
Kv1.3 potassium channel = target: T1, Kv1.3 potassium channel (Homo sapiens, UniProt P22001); test: Kv1.3 potassium channel blocker activity, automated whole-cell patch clamp (Patchliner); assay type: cell-based; conditions: CHO-K1 cells stably expressing Kv1.3; whole cell current inhibition; read-out: Kvl.3 IC50
T1 construct: expressed in transfected cells
Description: This assay is used to evaluate the disclosed compounds' activities as Kv1.3 potassium channel blockers.
CHO-K1 cells stably expressing Kv1.3 were grown in DMEM containing 10% heat-inactivated FBS, 1 mM Sodium Pyruvate, 2 mM L-Glutamine and G418 (500 μg/ml).
(§1) All compounds were dissolved in DMSO at 30 mM.
The currents were evoked by applying 100 ms depolarizing pulses from −90 mV (holding potential) to +40 mV were applied with 0.1 Hz frequency. […] 10 second breaks were used between pulse trains (see Table A below).
Data were sampled at 10 kHz without filtering. Passive leak currents were subtracted online using a P/4 procedure (HEKA Elektronik Dr. Schulze GmbH). […] Total compound incubation time before the next pulse train was not longer than 10 seconds. Peak current inhibition was observed during compound equilibration.

hERG channel = target: T2, hERG channel (Homo sapiens, UniProt Q12809); test: hERG electrophysiology, automated whole-cell patch clamp (Patchliner); assay type: cell-based
T2 construct: expressed in transfected cells
Description: as §1
The pulse frequency was 0.3 Hz.
Data were sampled at 10 kHz without filtering.

[1] = CHO-K1 cells stably expressing hERG, whole cell current inhibition, read-out: hERG IC50

T1 sequence (P22001 whole entry): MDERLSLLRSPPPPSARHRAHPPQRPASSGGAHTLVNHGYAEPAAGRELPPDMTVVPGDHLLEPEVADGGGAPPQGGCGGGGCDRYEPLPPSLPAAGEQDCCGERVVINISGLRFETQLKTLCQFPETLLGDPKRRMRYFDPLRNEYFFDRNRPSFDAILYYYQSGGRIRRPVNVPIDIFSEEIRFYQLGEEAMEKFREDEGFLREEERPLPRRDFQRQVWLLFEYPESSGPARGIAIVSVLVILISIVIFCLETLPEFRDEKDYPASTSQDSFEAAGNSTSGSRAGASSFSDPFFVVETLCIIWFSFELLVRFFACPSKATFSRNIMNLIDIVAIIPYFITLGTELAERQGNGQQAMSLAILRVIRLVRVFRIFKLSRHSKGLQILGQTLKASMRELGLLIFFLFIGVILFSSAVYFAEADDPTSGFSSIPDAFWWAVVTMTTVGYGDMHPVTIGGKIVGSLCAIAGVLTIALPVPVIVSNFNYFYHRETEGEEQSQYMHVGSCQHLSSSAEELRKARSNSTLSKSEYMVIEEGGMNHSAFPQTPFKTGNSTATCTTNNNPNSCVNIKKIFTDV
T2 sequence (Q12809 whole entry): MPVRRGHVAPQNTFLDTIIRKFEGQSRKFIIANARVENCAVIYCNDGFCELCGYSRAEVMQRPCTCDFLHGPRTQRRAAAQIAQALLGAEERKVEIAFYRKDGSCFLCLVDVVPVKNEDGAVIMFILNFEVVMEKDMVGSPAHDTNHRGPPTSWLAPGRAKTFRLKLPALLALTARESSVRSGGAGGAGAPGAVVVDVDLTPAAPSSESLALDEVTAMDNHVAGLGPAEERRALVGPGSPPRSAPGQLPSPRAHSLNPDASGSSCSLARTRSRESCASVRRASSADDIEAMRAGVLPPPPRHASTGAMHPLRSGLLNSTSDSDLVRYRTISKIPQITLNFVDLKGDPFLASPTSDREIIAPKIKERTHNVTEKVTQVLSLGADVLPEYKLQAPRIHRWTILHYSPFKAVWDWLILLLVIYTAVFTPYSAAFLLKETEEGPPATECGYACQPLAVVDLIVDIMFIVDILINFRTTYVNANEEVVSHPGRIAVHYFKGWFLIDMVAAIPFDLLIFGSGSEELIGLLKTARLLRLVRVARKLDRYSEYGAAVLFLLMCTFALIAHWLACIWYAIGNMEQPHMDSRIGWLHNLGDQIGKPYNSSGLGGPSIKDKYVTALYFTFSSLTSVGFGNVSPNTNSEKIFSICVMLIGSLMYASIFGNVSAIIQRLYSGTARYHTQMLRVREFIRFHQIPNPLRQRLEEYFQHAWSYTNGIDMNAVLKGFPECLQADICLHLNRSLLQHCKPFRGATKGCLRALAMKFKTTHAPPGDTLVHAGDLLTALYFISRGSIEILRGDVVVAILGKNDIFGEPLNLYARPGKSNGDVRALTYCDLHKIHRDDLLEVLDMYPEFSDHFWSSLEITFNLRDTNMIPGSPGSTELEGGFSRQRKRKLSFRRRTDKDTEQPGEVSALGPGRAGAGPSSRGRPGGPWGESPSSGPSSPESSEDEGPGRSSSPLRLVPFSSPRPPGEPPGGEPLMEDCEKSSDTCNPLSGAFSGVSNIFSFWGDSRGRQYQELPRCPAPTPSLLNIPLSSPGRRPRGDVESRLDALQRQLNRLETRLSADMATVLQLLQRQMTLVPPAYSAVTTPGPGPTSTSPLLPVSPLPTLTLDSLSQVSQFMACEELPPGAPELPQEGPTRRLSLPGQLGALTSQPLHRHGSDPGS

Structure (SMILES)	IC50 (Kv1.3 potassium channel) [µM]	IC50 (hERG channel; [1]) [µM]	IC50 (hERG channel; human, pH 7.4, CHO-K1 cells stably expressing hERG, whole cell current inhibition, read-out: hERG IC50) [µM]	IC50 (hERG channel) [µM]
Oc1cc(Cl)c(Cl)cc1CN1CCC(c2ccn[nH]2)CC1 [Compound 30, 2-((4-(1H-pyrazol-5-yl)piperidin-1-yl)methyl)-4,5-dichlorophenol]	< 10	< 30	–	–
NC1(CO)CCN(Cc2cc(Cl)c(Cl)cc2O)CC1 [Compound 14, 2-[[4-amino-4-(hydroxymethyl)piperidin-1-yl]methyl]-4,5-dichlorophenol]	< 1	< 30	–	–
Oc1cc(Cl)c(Cl)cc1CN1CCC2(CC1)COC2 [Compound 51, 4,5-dichloro-2-[2-oxa-7-azaspiro [3.5]nonan-7-ylmethyl] phenol]	< 10	< 30	–	–
C[C@H]1C[C@@H](CO)CCN1Cc1cc(Cl)c(Cl)cc1O (relative stereo) [Compound 29, 4,5-dichloro-2-(((2S,4S)-rel-4-(hydroxymethyl)-2-methylpiperidin-1-yl)methyl)phenol]	< 1	< 30	–	–
CC(=O)NCC1(CO)CCN(Cc2cc(Cl)c(Cl)cc2O)CC1 [Compound 21, N-([1-[(4,5-dichloro-2-hydroxyphenyl)methyl]-4-(hydroxymethyl)piperidin-4-yl]methyl)acetamide]	< 1	< 30	–	–
Oc1cc(Cl)c(Cl)cc1CN1CCC2(CCO2)CC1 [Compound 57, 4,5-dichloro-2-[1-oxa-7-azaspiro[3.5]nonan-7-ylmethyl]phenol]	< 10	< 30	–	–
Oc1cc(Cl)c(Cl)cc1CN1CCC2(CC1)COCC2O (stereo not drawn) [Compound 40]	< 1	–	–	< 30
CC(=O)NC1(CO)CCN(Cc2cc(Cl)c(Cl)cc2O)CC1 [Compound 12, N-[1-[(4,5-dichloro-2-hydroxyphenyl)methyl]-4-(hydroxymethyl)piperidin-4-yl]acetamide]	< 1	> 30	–	–
OCC1CCCN(Cc2cc(Cl)c(Cl)cc2O)CC1 (stereo not drawn) [Compound 27, 4,5-dichloro-2-[[4-(hydroxymethyl)azepan-1-yl]methyl]phenol]	< 1	< 30	–	–
NCC1(CO)CCN(Cc2cc(Cl)c(Cl)cc2O)CC1 [Compound 5, 2-[[4-(aminomethyl)-4-(hydroxymethyl)piperidin-1-yl]methyl]-4,5-dichlorophenol]	< 1	< 30	–	–
Oc1cc(Cl)c(Cl)cc1CN1CCC2(CC1)OCCC2O (stereo not drawn) [Compound 26, 8-(4,5-dichloro-2-hydroxybenzyl)-1-oxa-8-azaspiro[4.5]decan-4-ol]	< 1	< 30	–	–
Oc1cc(Cl)c(Cl)cc1CN1CCc2[nH]ncc2C1 [Compound 25, 4,5-dichloro-2-((6,7-dihydro-1H-pyrazolo[4,3-c]pyridin-5(4H)-yl)methyl)phenol]	< 10	< 30	–	–
OCCC1CCN(Cc2cc(Cl)c(Cl)cc2O)CC1 [Compound 39, 4,5-dichloro-2-((4-(2-hydroxyethyl)piperidin-1-yl)methyl)phenol]	< 10	< 30	–	–

The next lines start with results.

IC50 (Kv1.3 potassium channel) [µM]	Structure (SMILES)	IC50 (hERG channel; [1]) [µM]	IC50 (hERG channel; human, pH 7.4, CHO-K1 cells stably expressing hERG, whole cell current inhibition, read-out: hERG IC50) [µM]	IC50 (hERG channel) [µM]
< 10	OCC1CCCN(Cc2cc(Cl)c(Cl)cc2O)C1 (stereo not drawn) [Compound 45, 4,5-dichloro-2-[[3-(hydroxymethyl)piperidin-1-yl]methyl]phenol]	< 30	–	–
< 1	OCC1CCN(Cc2cc(Br)c(Br)cc2O)CC1 [Compound 60, 4,5-dibromo-2-((4-(hydroxymethyl)piperidin-1-yl)methyl)phenol]	< 30	–	–
< 10	OCC1CN(Cc2cc(Cl)c(Cl)cc2O)CCO1 (stereo not drawn) [Compound 52, 4,5-dichloro-2-[[2-(hydroxymethyl)morpholin-4-yl]methyl]phenol]	–	30	–
< 10	OCC1(O)CCN(Cc2cc(Cl)c(Cl)cc2O)CC1 [Compound 48, 1-[(4,5-dichloro-2-hydroxyphenyl)methyl]-4-(hydroxymethyl)piperidin-4-ol]	< 30	–	–
< 10	OCC1CCN(Cc2cc(Cl)c(Cl)cc2O)C1 (stereo not drawn) [Compound 44, 4,5-dichloro-2-[[3-(hydroxymethyl)pyrrolidin-1-yl]methyl]phenol]	< 30	–	–
< 10	OCC1CCN(Cc2cc(Cl)c(Cl)cc2O)CC1 [Compound 65, 4,5-dichloro-2-((4-(hydroxymethyl)piperidin-1-yl)methyl)phenol]	< 30	–	–
< 1	O=C(C1CCN(Cc2cc(Br)c(Br)cc2O)CC1)N1CCCC1 [Compound 63, (1-(4,5-dibromo-2-hydroxybenzyl)piperidin-4-yl)(pyrrolidin-1-yl)methanone]	< 30	–	–
< 10	CC1(CO)CCN(Cc2cc(Cl)c(Cl)cc2O)CC1 [Compound 53, 4,5-dichloro-2-[[4-(hydroxymethyl)-4-methylpiperidin-1-yl]methyl] phenol]	< 30	–	–
< 10	COCC1CCN(Cc2cc(Cl)c(Cl)cc2O)CC1 [Compound 56, 4,5-dichloro-2-[[4-(methoxymethyl)piperidin-1-yl]methyl]phenol]	< 30	–	–
< 10	O=C(N1CCOCC1)N1CCN(Cc2cc(Cl)c(Cl)cc2O)CC1 [Compound 58, (4-(4,5-dichloro-2-hydroxybenzyl)piperazin-1-yl)(morpholino) methanone]	< 30	–	–
< 10	Oc1cc(Cl)c(Cl)cc1CN1CCC(C2COC2)CC1 [Compound 42, 4,5-dichloro-2-[[4-(oxetan-3-yl)piperidin-1-yl]methyl]phenol]	< 30	–	–

Reference: patent US20220411367A1, “ARYLMETHYLENE HETEROCYCLIC COMPOUNDS AS KV1.3 POTASSIUM SHAKER CHANNEL BLOCKERS” (D. E. Shaw Research, LLC, priority 2019, published 2022)
